The source made the active and inactive calls. The rule behind the calls is not given here.

In general, Ki refers to the equilibrium dissociation constant of an inhibitor or competing ligand from its target. The low end stands for tighter binding, the high end for weaker binding. Usually EC50 stands for the concentration needed to bring the measured effect to its halfway point. The term Emax denotes the maximal effect, on the per cent scale that the assay sets.

Test [1] addresses T1, Delta-type opioid receptor (Homo sapiens, UniProt P41143). Briefly: Displacement of [3H]DPDPE from human delta opioid receptor expressed in CHO cells. Format: cell-based. (In a radioligand displacement assay an active substance lowers the binding of a labelled ligand.)
Test [2] concerns the target Mu-type opioid receptor (Homo sapiens, UniProt P35372). Description: Displacement of [3H]DAMGO from human mu opioid receptor expressed in CHO cells. Format: cell-based.
The species entered for test [3] is Homo sapiens. Briefly: Selectivity ratio for Ki for displacement of [3H]DAMGO from human mu opioid receptor expressed in CHO cells to Ki for displacement of [3H]DPDPE from human DOR expressed in CHO cells. Format: cell-based.
Test [4] deals with T1, Delta-type opioid receptor. Description: Agonist activity at human delta opioid receptor expressed in CHO cell membranes by [35S]GTPgammaS binding assay. In kind it is functional. (In general: Binding of GTPγS marks nucleotide exchange on a G protein.)
Test [5] deals with T1, Delta-type opioid receptor. Description: Agonist activity at human delta opioid receptor expressed in CHO cell membranes by [35S]GTPgammaS binding assay relative to control. Format: functional.
Test [6] relates to Mus musculus. Description: Antidepressant activity in sc dosed mouse assessed as decrease in total immobility count by forced swim test. Format: functional, organism-based.
Test [7] concerns Mus musculus. Description: Antidepressant activity in sc dosed mouse assessed as increase in total swimming count by forced swim test. Format: functional, organism-based.
Test [8] deals with Mus musculus. Description: Antidepressant activity in sc dosed mouse assessed as increase in climbing count by forced swim test. In kind it is functional, organism-based.
The test system of test [9] is Mus musculus. Description: Antidepressant activity in mouse at 3 mg/kg, sc by forced swim test. In kind it is functional, organism-based.
Test [10] addresses Kappa-type opioid receptor (Homo sapiens, UniProt P41145). Description: Displacement of [3H]U69593 from human kappa opioid receptor expressed in CHO cells. In kind it is cell-based.
For test [11], the species on record is Homo sapiens. Description: Selectivity ratio for Ki for displacement of [3H]U69593 from human kappa opioid receptor expressed in CHO cells to Ki for displacement of [3H]DPDPE from human DOR expressed in CHO cells. In kind it is cell-based.
For test [12], the target named is T1, Delta-type opioid receptor. Description: Inverse agonist activity at human delta opioid receptor expressed in CHO cell membranes by [35S]GTPgammaS binding assay. Format: functional.
Test [13] has as its system Mus musculus. Briefly: Antidepressant activity in mouse at 10 mg/kg, sc by forced swim tes. Format: functional, organism-based.

Chain of Mu-type opioid receptor (P35372 whole entry): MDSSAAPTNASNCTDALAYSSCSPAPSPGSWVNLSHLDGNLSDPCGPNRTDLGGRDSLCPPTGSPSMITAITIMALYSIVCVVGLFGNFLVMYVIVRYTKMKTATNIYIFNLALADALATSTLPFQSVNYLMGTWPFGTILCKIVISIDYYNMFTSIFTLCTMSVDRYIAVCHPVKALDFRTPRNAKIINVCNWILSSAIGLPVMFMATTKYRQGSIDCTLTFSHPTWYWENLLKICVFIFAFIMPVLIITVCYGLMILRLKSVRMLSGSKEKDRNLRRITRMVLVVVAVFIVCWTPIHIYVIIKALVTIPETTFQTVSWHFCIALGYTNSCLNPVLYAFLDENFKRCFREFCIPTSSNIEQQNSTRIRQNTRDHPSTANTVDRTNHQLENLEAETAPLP
T1 sequence (P41143 whole entry): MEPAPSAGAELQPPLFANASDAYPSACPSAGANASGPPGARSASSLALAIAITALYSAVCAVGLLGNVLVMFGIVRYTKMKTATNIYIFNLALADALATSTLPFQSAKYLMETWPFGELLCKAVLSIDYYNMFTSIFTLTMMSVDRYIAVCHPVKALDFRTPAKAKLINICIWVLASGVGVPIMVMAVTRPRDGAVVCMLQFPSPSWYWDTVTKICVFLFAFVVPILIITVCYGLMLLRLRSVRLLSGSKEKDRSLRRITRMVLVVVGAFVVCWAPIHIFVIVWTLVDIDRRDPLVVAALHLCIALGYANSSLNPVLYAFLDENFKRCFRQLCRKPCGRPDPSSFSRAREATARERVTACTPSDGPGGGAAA
Chain of Kappa-type opioid receptor (P41145 whole entry): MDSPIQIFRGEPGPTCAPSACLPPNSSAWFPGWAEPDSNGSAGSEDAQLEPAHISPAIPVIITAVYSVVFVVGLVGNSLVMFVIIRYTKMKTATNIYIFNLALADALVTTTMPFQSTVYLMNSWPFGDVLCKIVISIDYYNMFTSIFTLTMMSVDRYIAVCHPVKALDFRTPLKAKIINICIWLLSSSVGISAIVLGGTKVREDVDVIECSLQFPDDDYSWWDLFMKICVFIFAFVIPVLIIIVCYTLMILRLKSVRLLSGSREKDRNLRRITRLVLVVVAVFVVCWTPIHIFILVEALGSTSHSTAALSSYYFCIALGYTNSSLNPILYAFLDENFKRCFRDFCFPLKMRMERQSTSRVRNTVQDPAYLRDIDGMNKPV

`O=C(CCc1ccccc1)N1CC[C@]23Cc4nc5ccccc5cc4C[C@@]2(O)[C@H]1Cc1ccc(O)cc13`: the figures for the Ki in test [1] and in test [2] were 4.17 nM and 1790 nM, respectively. The Ratio Ki in test [3] was found to be 430. The same compound showed an EC50 in [4] of 10.4 nM. The same compound had an Emax in test [5] of 123%.
Turning to `O=C(Cc1ccccc1)N1CC[C@]23Cc4nc5ccccc5cc4C[C@@]2(O)[C@H]1Cc1ccc(O)cc13`, affinity in test [1] was put at a Ki of 26 nM. The same compound had an EC50 in test [4] of 14.4 nM. In [5], this compound yielded an Emax of 125%. Besides, the Activity result in test [6], in [7] and in test [8] was “Dose-dependent effect” in each case. For the same compound, the result in [9] was Active.
On to `O=C(Cc1ccccc1)N1CC[C@]23c4c5ccc(O)c4O[C@H]2c2[nH]c4ccccc4c2C[C@@]3(O)[C@H]1C5`, for which the results for the Ki in [1], in test [2] and in test [10] were 41.5 nM, 8670 nM and 5990 nM, respectively. Also, the Ratio Ki came out at 209 in [3] and 144 in test [11]. This compound showed an EC50 in [4] of 132 nM. In addition, the maximal effect (Emax) in test [5] is 97.5%.
Consider `COC1=CC=C2C[C@H]3N(C(=O)C4CC4)CC[C@]45C2C1O[C@H]4c1[nH]c2ccccc2c1C[C@@]35O` (stereo partly specified), for which the EC50 in test [12] amounted to 322 nM.
Consider `CN1CC[C@]23Cc4nc5ccccc5cc4C[C@@]2(O)[C@H]1Cc1ccc(O)cc13`, for which the Activity result in test [6], in test [7] and in [8] was “Dose-dependent effect” in each case. For the same compound, the result in test [13] was Active.
With `O=C(CCc1ccccc1)N1CC[C@]23c4c5ccc(O)c4O[C@H]2c2[nH]c4ccccc4c2C[C@@]3(O)[C@H]1C5`, the Ki amounted to 89 nM in test [1], 3480 nM in test [2] and 2150 nM in test [10]. Besides, the Ratio Ki was 39.2 in [3] and 24.2 in [11]. Moreover, in test [4], it took 127 nM to reach a half-maximal effect (EC50). In [5], this compound had an Emax of 88.5%.

The values are drawn from ChEMBL document CHEMBL4627370, “Discovery of δ opioid receptor full agonists lacking a basic nitrogen atom and their antidepressant-like effects” (Bioorg Med Chem Lett, 2020).
